Results reported in patent US11707440B2 (priority 2017, dated 2023).

Experiments:
[1] = tested on: subjects with MDD at imminent risk for suicide; experiment: MADRS total score, study […]2001; assay type: in vivo, human; details: esketamine 84 mg; baseline to Day 1, 4-hours postdose; ANCOVA
Excerpt: Primary efficacy variable/Primary Time point: Change from baseline (Day 1, predose) to Day 1, 4-hours postdose in MADRS total score. The MADRS consists of 10 items that cover all of the core depressive symptoms, with each item scoring from 0 (item is not present or is normal) to 6 (severe or continuous presence of the symptom). A higher score represents a more severe condition.
The primary efficacy endpoint is the change in MADRS total score from baseline to Day 1: 4-hours postdose. MADRS total scores range from 0 to 60. […] As this is a phase 2a proof-of-concept study, statistical significance is based on a two-sided alpha level of 0.20. All p-values presented in this document are two-sided.

[2] = tested on: subjects with MDD at imminent risk for suicide; experiment: Sustained response, response and remission based on MADRS, […]2001; assay type: in vivo, human; details: esketamine 84 mg; at least 50% MADRS reduction from Day 1 4 hours through Day 25
Excerpt: • a. Changes from baseline to Day 2 and Day 25 for the MADRS total score • b. Changes from baseline to Day 1 4-hours postdose, Day 2 and Day 25 for the MADRS Suicide Item • c. Changes from baseline to Day 1 4-hours postdose, Day 2, and Day 25 for the clinical global judgment of suicide risk from the Suicide Ideation and Behavior Assessment Tool (SIBAT) • d. Sustained response (Onset of Clinical Response) defined as at least 50% reduction from baseline in MADRS total score with onset on Day 1 that is maintained through the end of the double-blind phase (Day 25) • e. Changes from baseline to Day 1 4-hours postdose, Day 2, and Day 25 for the Beck Scale for Suicidal Ideation (BSS) • f. Changes from baseline to Day 1 4-hours postdose and Day 25 for the Beck Hopelessness Scale
Sustained response is defined as at least 50% reduction from baseline in MADRS total score with onset on Day 1: 4 hours postdose that is maintained through the end of the double-blind phase (Day 25). Four subjects in the esketamine 84 mg group and 2 subjects in the placebo group had sustained response throughout the double-blind phase.

[3] = tested on: subjects with MDD at imminent risk for suicide; experiment: Beck Scale for Suicidal Ideation (BSS), […]2001; assay type: in vivo, human; details: esketamine 84 mg; Day 1: 4-hours postdose, Day 2 (DB), or End Point (DB)
Description: The BSS is a 21-item self-reported instrument to detect and measure the severity of suicidal ideation in adults and adolescents aged 17 years and older. The BSS total score represents the severity of suicide ideation, and it is calculated by summing the ratings of the first 19 items; the total score ranges from 0 to 38, with a higher score representing greater suicide ideation. Increasing scores reflect increases in suicidal risk.

[4] = tested on: subjects with MDD at imminent risk for suicide; details: esketamine 84 mg

With `CN[C@]1(c2ccccc2Cl)CCCCC1=O` [esketamine, (S)-2-(2-chlorophenyl)-2-(methylamino)cyclohexanone] the “MADRS total score, least-square mean difference (SE) from placebo” value [1] was −5.3 (2.10), the “Subjects with sustained response throughout the double-blind phase” value [2] was “Four” and the “BSS total score change vs placebo” value [3] was “no statistically significant differences”. For the same compound, the “Subjects who discontinued from the double-blind phase due to (treatment-emergent) adverse events” value [4] was 5 subjects, the “Subjects with a serious TEAE” value ([4]; double-blind phase) was “Four” and the “Subjects with at least one TEAE” value ([4]; double-blind phase) was 94.3%. The TEAE dissociation ([4]; double-blind phase) was 31.4%, the TEAE dizziness ([4]; double-blind phase) was 34.3% and the TEAE dysgeusia ([4]; double-blind phase) was 31.4%. The TEAE headache ([4]; double-blind phase) was 31.4%, the TEAE nausea ([4]; double-blind phase) was 37.1% and the TEAE vomiting ([4]; double-blind phase) was 20.0%. For the same compound, the “Subjects with a serious adverse event” value ([4]; follow up phase) was 1 subjects and the “Subjects with at least one adverse event” value ([4]; follow up phase) was 48.1%.
